Experiment [1] deals with AMPA receptors. The experiment in a line: AMPA receptor binding test (in vitro autoradiography method). Particulars: acute rat brain section including the striatum; [^11C] K-2; Fig. 1. Details: species or system SD rats. The method, then:
As rats, adult male SD rats (Charles River, Japan) which were […] were used. An acute brain section which included the striatum and whose thickness was 200 µm was produced, was placed on a cell strainer and was left in an oxygenated ACSF (artificial cerebrospinal fluid) for 60 minutes. 12 ml of 100 µM PEPA (ACSF containing 1% DMSO) was adjusted, and [^11C] K-2 was added thereto so as to achieve 20 nM, and the resultant solution was left for 60 minutes. After the reaction, the resultant solution was washed with the ACSF for 10 seconds three times, and was finally washed with distilled water for 10 seconds. The cell strainer was cut out so as to be slightly larger than the brain section after the reaction, and was exposed to an imaging plate for 2 hours. The imaging plate after the exposure was imaged with Typhoon (GE Healthcare Japan) (resolution of 25 pixels).

Experiment [2] deals with AMPA receptors. The experiment is described as follows: AMPA receptor binding test (electrophysiological verification, whole-cell recording of AMPA current in acute hippocampal section). Particulars: pyramidal cell in CA1, compound administered for 15 minutes, Fig. 2. It is filed as cell-based, SD rats. The method, then:
Male SD rats which were 7 to 8 weeks old were used. The rat was decapitated under anesthesia with isoflurane, and an acute brain section which included the hippocampus and whose thickness was 400 µm was produced with a vibratome (VT1000; Leica Camera AG). The section was left in the ACSF at room temperature for 60 minutes, and then an AMPA current was measured by a whole-cell recording method. Under conditions in which the ACSF was refluxed at a rate of 3 ml/minute, only the AMPA current was isolated by administration of picrotoxin and APV. An exciting electrode was placed on a Schaffer fiber, and a recording electrode was placed on a pyramidal cell in CA1. The whole-cell recording was performed with a potential fixed to -80 mV, and a stimulus of 100 microseconds was applied every 30 seconds. The AMPA current in a ground state was recorded for 5 minutes, then K-2 or K-4 was administered for 15 minutes and thereafter the AMPA current was recorded for 30 minutes. When the section was left and when the section was refluxed, the ACSF was saturated with 95% O2/5% CO2 and was then used, and the composition of the ACSF was as follows; 119 mM NaCl, 2.5 mM KCl, 2.5 mM CaCl2, 1.5 mM MgSO4, 26 mM NaHCO3 and 1 mM NaH2PO4. […]

A further experiment deals with WKY rat. The experiment is described as follows: Forced swimming test using rat. The experiment is classed as in vivo. As to conditions: acute administration, intravenous, 30 minutes before test; 1.0 mg/kg; Figs. 8, 9 and 10. The protocol:
In a forced swimming test, AMPA receptor-binding compounds K-2 and K-4 were dissolved in 100% DMSO (Nacalai Tesque, Inc. Japan) so as to have a concentration of 2.1 mM, were diluted with saline immediately before being administered (15% DMSO, 320 µM) and were intravenously administered to the rat with an administered amount of 5 µl/weight (g) such that the administered amount fell within a range of 1 mg/kg to 1.5 mg/kg.
In all animal experiments, the deliberation and the approval of the animal experiment committee in Yokohama City University were received (approval number: F-A-15-051). As rats, adult male Wistar rats which were 6 to 10 weeks old and Wistar Kyoto rats (WKY rats) which were depression model rats (Charles River, Japan) were used. In order to acquire a route for the repeated administration of K-2, a jugular vein cannula indwelling surgery was performed a week before the experiment. The rat was made to fall sleep with isoflurane (DS Pharma Animal Health, Japan), and thereafter while anesthesia was maintained at an isoflurane concentration of 1.5% (air 2 L/minute), the jugular vein cannula indwelling surgery was performed. The skin of the neck was incised about 3 cm such that subcutaneous fat was opened, and thus the jugular vein was exposed. A needle to which a cannula tube was fitted was made to penetrate the jugular vein, then the cannula tube was removed from the needle and the tip of the cannula tube was inserted 2.5 cm into the jugular vein so as to be fixed near the insertion portion with sutures. The opposite side of the cannula tube was exposed to the outside of the body through the back of the rat, a plug was fitted so as to prevent backflow and the opened skin was sutured. After the completion of the surgery, the rat was returned to a home cage.
The forced swimming test was performed in a pre-administration experiment on the day before the administration of the drug, in an acute administration experiment on the first day of the administration of the drug and in a chronic administration experiment on the seventh day of the administration of the drug. […]

Consider five compounds from patent EP3569229A1, “PROPHYLACTIC AND/OR THERAPEUTIC AGENT FOR DISEASES ASSOCIATED WITH AMPA RECEPTORS” (Public University Corporation Yokohama City University, priority 2017, dated 2018).

The term Kd denotes a measure of binding affinity in units of concentration. Consider `CN(CCSc1cc(F)c(OCC(N)=O)c(F)c1)S(=O)(=O)c1ccccc1` [K-2, {4-[2-(benzenesulfonyl-methyl-amino)-ethylsulfanil]-2,6-difluoro-phenoxy}-acetamide], for which binding at AMPA receptors [1] was put at a Kd of 47.9 nM. In addition, the “binding affinity to the AMPA receptors” value in the experiment with AMPA receptors [2] is “indicated binding affinity”.
`CN(C)C(=O)COc1c(F)cc(SCCN(C)S(=O)(=O)c2ccccc2)cc1F` [K-4, {4-[2-(benzenesulfonyl-methyl-amino)-ethylsulfanil]-2,6-difluoro-phenoxy}-N,N-dimethyl-acetamide]: the “binding affinity to the AMPA receptors” value in the experiment with AMPA receptors [2] was “indicated binding affinity”.
In the case of `CN(C)C(=O)COc1c(F)cc(SCCN(C)S(=O)(=O)c2ccc(F)cc2)cc1F` [K-26, {4-[2-(4-fluoro-benzenesulfonyl-methyl-amino)-ethylsulfanil]-2,6-difluoro-phenoxy}-N,N-dimethyl-acetamide], the immobility time result in the experiment with WKY rat is listed as “tendency that the immobility time was lower”.
On the same count and under the same terms, then `CCN(CC)C(=O)COc1c(F)cc(SCCN(C)S(=O)(=O)c2ccccc2)cc1F` [K-30, {4-[2-(benzenesulfonyl-methyl-amino)-ethylsulfanil]-2,6-difluoro-phenoxy}-N,N-diethyl-acetamide], with “tendency that the immobility time was lower”; and `CNC(=O)COc1c(F)cc(SCCN(C)S(=O)(=O)c2ccccc2)cc1F` [K-32, {4-[2-(benzenesulfonyl-methyl-amino)-ethylsulfanil]-2,6-difluoro-phenoxy}-N-methyl-acetamide], with “tendency that the immobility time was lower”.
